Measurements: US20230255988A1 (CORNELL UNIVERSITY, priority 2020, published 2023)
Entries after “also recorded” stand apart in the source; their conditions may differ.

What was measured:
Format in all cases: in vivo, human
[1] = tested on: amyloid positive patients with amnestic mild cognitive impairment (aMCI) or mild dementia due to AD; test: AD Assessment Scale-Cognitive Subscale (ADAS-Cog), 12-month randomized placebo-controlled trial
Description: ADAS-cog served as the primary endpoint. […] Assignment of patients. […] Using blocked, stratified randomization design, patients were assigned to the treatment or control group. […] Within this group, a separate randomization schedule was generated using the proc plan function in SAS statistics program for those with an MMSE greater than or less than or equal to 26 to balance their allocation patients to placebo or treatment groups. Using a block size of four for a total of seventy-six patients, 19 blocks were created to help ensure balanced recruitment into treatment and control groups within strata. The schedule was generated in advance by the statistician and provided to the blinded pharmacist in charge of executing the randomization. Two randomization worksheets stratified by MMSE were provided to the pharmacist, who randomized the patients. […] The patients were enrolled by the clinical study team and randomized by the pharmacist. The assignment to the treatment or placebo group was known only to the pharmacist and kept behind a triple lock. The patients received numbered bottles. The trial duration per participant was twelve months. […] AD Assessment Scale-Cognitive Subscale (ADAS-Cog) was the primary outcome measure. It indicates the severity of the most important symptoms of Alzheimer's disease. It consists of 11 tasks measuring the disturbances of memory, language, praxis, attention and other cognitive abilities (S. Balsis et al., Alzheimer's & Dementia, 8, 288-294, 2012; […] al., International Psychogeriatrics, 9, 123-138, 1997). The primary clinical outcome was ADAS-Cog, and secondary outcomes included the CDR score and fluorodeoxyglucose ([…]) imaging of the brain. AGE levels were an exploratory outcome. The primary analysis followed Intention-to-Treat (ITT) and the secondary analysis was per-protocol. The per-protocol analysis omitted one placebo participant who took benfotiamine from a commercial vendor. The ITT and per-protocol analysis are presented for the primary outcome ADAS-cog and the secondary measure CDR. For the other measures, only per-protocol analysis are presented. The primary analysis was done on the ITT data. The Last-Observation-Carry-Forward (LOCF) method was used to impute the missing values of ADAS total score and the secondary endpoints such as CDR as well for each time point. The primary analysis was done on ITT data which were imputed with LOCF method. Per-protocol analysis was done as a sensitivity analysis and as observational comparisons (F. J. Molnar et al., Canadian Medical Association Journal, 179, 751, 2008).

[2] = tested on: amyloid positive patients with amnestic mild cognitive impairment (aMCI) or mild dementia due to AD; test: Clinical dementia rating (CDR) score, 12-month trial
Description: ADAS-cog served as the primary endpoint. […] The trial duration per participant was twelve months. […] Clinical dementia rating (CDR) score. CDR is a five-point scale used to characterize six domains of cognitive and functional performance applicable to Alzheimer's disease and related dementias: Memory, Orientation, Judgment & Problem Solving, Community Affairs, Home & Hobbies, and Personal Care. A higher score indicates greater dementia (C. P. Hughes et al., British Journal of Psychiatry, 140, 566-572, 1982). The primary clinical outcome was ADAS-Cog, and secondary outcomes included the CDR score and fluorodeoxyglucose ([…]) imaging of the brain. AGE levels were an exploratory outcome. The primary analysis followed Intention-to-Treat (ITT) and the secondary analysis was per-protocol. The per-protocol analysis omitted one placebo participant who took benfotiamine from a commercial vendor. The ITT and per-protocol analysis are presented for the primary outcome ADAS-cog and the secondary measure CDR. For the other measures, only per-protocol analysis are presented.

[3] = tested on: brain glucose utilization; test: FDG PET spatial covariance pattern score (SSM/PCA, CDR-derived)
Procedure: A multivariate machine learning approach was also applied to evaluate the FDG PET data (FIG. 10). Pattern-based methods have been increasingly applied to the evaluation of neurodegeneration and therapeutic response as they address the issue of complexity in comparing multiple regions and can increase signal to noise for analysis. Feature reduction was performed through use of the Scaled Subprofile Model (SSM), a form of Principal Components Analysis (PCA). The resulting components were used in regression modeling that determined spatial patterns of hypometabolism and hypermetabolism (or preservation relative to other regions) associated with the Clinical Dementia Rating (CDR) score.
Specifically, SSM by performing PCA on the PET-data array was run, with a subsequent brain-behavioral regression to derive a best-fitting pattern whose pattern scores correlates with the CDR score in a negative direction (i.e., the higher the pattern score, the lower the CDR).
To help with the imputation of the multivariate analysis, a generic multivariate decomposition was written as: Y(s,x)=w(s) v(x)+ε(s,x), where Y denotes the (log-transformed) data which depends on a participant and time index s and the voxel location x. […] The pattern score w(s) was chosen to correlate negatively with CDR across the data. The pattern v(x) is normalized to have unity Euclidean norm, i.e. ||v||=1. This means that the pattern score carries all information about the strength of the signal associated with the spatial pattern. Higher values of w(s) imply higher values of pattern-associated FDGPET signal in direct proportion in all regions.
To estimate the topographic robustness of any patterns of interest, a bootstrap resampling procedure was performed 10,000 times, for which data were resampled with replacement and the complete analytic recipe was executed on the resampled data, generating distribution for pattern loadings. […] For the correct interpretation, it is worth noting that positive and negative loadings describe only relative, and not absolute differences, in the signal associated with any covariance pattern. Since the residual signal in ε(s,x) was stripped off, there cannot be assurance that there are absolute differences in the total data for the regions with robust loadings.
After deriving and estimating the topographic robustness of the pattern, the pattern score was inspected for an effect of treatment at baseline and follow-up, also broken down by APOE ε4 status.

Compound: C/C(=C(\CCOP(=O)(O)O)SC(=O)c1ccccc1)N(C=O)Cc1cnc(C)nc1N [benfotiamine]
- ADAS-cog change from baseline at 12 months ([1]; ITT analysis, 2×300 mg per day, 12 months, placebo 3.26): 1.39
- ADAS-cog unadjusted change baseline to 12 months, difference versus placebo ([1]; ITT, mixed effect model p=0.071, GEE p=0.137, Wilcoxon p=0.098): favoring benfotiamine
- ADAS score change Mean (SD), baseline to month 12 ([1]; Per-protocol, unadjusted, 2×300 mg per day, placebo 3.2 (5.66)): 0.96 (5.41)
- ADAS-cog effect modification by APOE ε4 allele carrier status ([1]; exploratory): no effect modification
- ADAS-cog effect modification by sex ([1]; exploratory, not statistically significant): males might have been more responsive
- ADAS-cog response by baseline MMSE ([1]; post-hoc, MMSE>=26 p=0.027, MMSE<26 p=0.99): stronger response among those with a higher MMSE at baseline
- Mean change in global CDR from baseline to 12 months ([2]; 2×300 mg per day, placebo 0.22, p=0.034): 0.05
- reduction of deterioration (global CDR change versus placebo) ([2]; baseline to 12 months): 77%
- CDR response by APOE ε4 status ([2]; non-APOE ε4 group p=0.013): non-APOE ε4 group seemed to respond much more; also recorded: only the non-APOE ε4 allele group differs
- mean change in CDR-SB from baseline to 12 months, versus placebo ([2]; p=0.078): difference at trend level
- CDR-derived FDG PET pattern, treatment effect in APOE ε4 negative population ([3]; 12 months, p=0.019): treatment effect at 12 months; also recorded: show a treatment effect
- CDR-derived FDG PET pattern, treatment effect in APOE ε4 positive population ([3]; 12 months, p=0.255): not in APOE ε4 positive population; also recorded: do not
- longitudinal change in pattern score (follow-up minus baseline), treated versus untreated ([3]; 59 participants who completed follow-up, p=0.638): No difference in longitudinal change
- FDG PET pattern score at time point of 12 months, treatment versus untreated ([3]; FIG. 10A): slightly but significantly higher
- FDG PET pattern score, change from baseline to 12 months versus untreated ([3]; all participants, APOE status not considered): significantly higher change from baseline to 12 months in treated than untreated participants
